Experimental data as given in US20010018073A1, “Transdermal compositions with enhanced skin penetration properties” (JENAPHARM GMBH & CO., KG, priority 1997, published 2001).

Columns and labels:
[1] = substance on its own versus ANP employed as accelerant; cited from earlier work
[2] = T2 relaxation times of destructuring and structuring agents in water; type: physicochemical; settings: solute in water, concentration 0.5 mol/l

SMILES	permeation through the skin relative to ANP [1]	T2 relaxation time [2]
O=[N+]([O-])O[C@H]1CO[C@H]2[C@@H]1OC[C@H]2O[N+](=O)[O-] [ISDN, isosorbide dinitrate]	10 factor	–
OC[C@H]1O[C@@](CO)(O[C@H]2O[C@H](CO)[C@@H](O)[C@H](O)[C@H]2O)[C@@H](O)[C@@H]1O [Sucrose]	–	18.7 ms
NC(N)=O [Urea]	–	145 ms
